Results published in ChEMBL document CHEMBL1129218, “Bisbenzamidine isoxazoline derivatives as factor Xa inhibitors” (Bioorg Med Chem Lett, 1997).

How the values were obtained:
[1] = target: Coagulation factor X (Homo sapiens, UniProt P00742); assay: Inhibition of Factor Xa
[2] = target: Prothrombin (Homo sapiens, UniProt P00734); assay: The compound was evaluated for inhibitory activity against Thrombin
[3] = target: Serine protease 1 (Homo sapiens, UniProt P07477); assay: The compound was evaluated for inhibitory activity against Trypsin
Serine protease 1, sequence (P07477 whole entry): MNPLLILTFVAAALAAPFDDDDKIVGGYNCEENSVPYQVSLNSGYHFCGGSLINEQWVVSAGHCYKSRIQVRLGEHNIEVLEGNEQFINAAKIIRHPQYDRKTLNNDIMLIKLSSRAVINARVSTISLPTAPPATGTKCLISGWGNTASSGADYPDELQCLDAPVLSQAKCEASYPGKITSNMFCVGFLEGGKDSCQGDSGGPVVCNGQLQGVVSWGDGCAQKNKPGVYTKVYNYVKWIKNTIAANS

[4] = species on record: Rattus norvegicus; assay: Compound was tested for inhibitory dose which produced 50% inhibition of thrombus formation in a rat vena cava thrombosis model; type: functional
[5] = tested on: Rattus norvegicus; assay: Percent inhibition for thrombus formation after intravenous infusion at 1 mg/kg/h in a rat vena cava thrombosis model; type: functional
[6] = tested on: Rattus norvegicus; assay: Percent inhibition for thrombus formation after intravenous infusion at 5 mg/kg/h in a rat vena cava thrombosis model; type: functional

Coagulation factor X, sequence (P00742 41-179 limits assumed): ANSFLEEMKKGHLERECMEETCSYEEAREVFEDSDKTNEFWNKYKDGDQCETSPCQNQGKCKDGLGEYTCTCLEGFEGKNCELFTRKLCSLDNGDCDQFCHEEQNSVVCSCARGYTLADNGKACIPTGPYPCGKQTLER
Coagulation factor X, sequence (P00742 235-488 limits assumed): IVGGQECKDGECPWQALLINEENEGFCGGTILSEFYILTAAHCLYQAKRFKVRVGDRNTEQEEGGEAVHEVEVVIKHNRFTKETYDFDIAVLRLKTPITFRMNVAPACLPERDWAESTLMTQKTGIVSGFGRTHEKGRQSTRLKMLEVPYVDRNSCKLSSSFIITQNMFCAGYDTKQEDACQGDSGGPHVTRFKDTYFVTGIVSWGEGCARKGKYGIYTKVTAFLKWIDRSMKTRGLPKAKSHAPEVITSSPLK

## N=C(N)c1ccc(C2=NOC(CC(=O)Nc3cccc(C(=N)N)c3)C2)cc1 (stereo unspecified)
[1]
  Ki: 870 nM
[2]
  Ki: 2.2 µM
[3]
  Ki: 510 nM

## N=C(N)c1ccc(NC(=O)C2(CC(=O)O)CC(c3cccc(C(=N)N)c3)=NO2)cc1 (stereo unspecified)
[1]
  Ki: 143 nM
[2]
  Ki: > 21 µM
[3]
  Ki: > 1200 nM

## COC(=O)CC1(C(=O)Nc2ccc(C(=N)N)cc2)CC(c2cccc(C(=N)N)c2)=NO1 (stereo unspecified)
[4]
  ID50: 1.6 mg/kg/h
[5]
  inhibition in vivo at 1 mg/kg/h: 40%
[6]
  inhibition in vivo at 5 mg/kg/h: 80%
[2]
  Ki: 16 µM
[3]
  Ki: 480 nM

## COC(=O)CC1(C(=O)Nc2cccc(C(=N)N)c2)CC(c2cccc(C(=N)N)c2)=NO1 (stereo unspecified)
[1]
  Ki: 800 nM
[2]
  Ki: 11.8 µM
[3]
  Ki: 230 nM

## N=C(N)c1ccc(NC(=O)C2CC(c3cccc(C(=N)N)c3)=NO2)cc1 (stereo unspecified)
[1]
  Ki: 270 nM
[2]
  Ki: 16 µM
[3]
  Ki: 700 nM

## N=C(N)c1ccc(/C=C2/CCCC/C(=C\c3ccc(C(=N)N)cc3)C2=O)cc1
[1]
  Ki: 13 nM

## N=C(N)c1cccc(NC(=O)CC2CC(c3cccc(C(=N)N)c3)=NO2)c1 (stereo unspecified)
[1]
  Ki: 1800 nM
[2]
  Ki: 11.2 µM
[3]
  Ki: > 1200 nM

## COC(=O)CC1(C(=O)Nc2cccc(C(=N)N)c2)CC(c2ccc(C(=N)N)cc2)=NO1 (stereo unspecified)
[1]
  Ki: 117 nM
[2]
  Ki: 14.1 µM
[3]
  Ki: > 1200 nM

## N=C(N)c1ccc(NC(=O)CC2CC(c3ccc(C(=N)N)cc3)=NO2)cc1 (stereo unspecified)
[1]
  Ki: 1700 nM
[2]
  Ki: 2.2 µM

## COC(=O)CNC(=O)CC1(C(=O)Nc2ccc(C(=N)N)cc2)CC(c2cccc(C(=N)N)c2)=NO1 (stereo unspecified)
[1]
  Ki: 18 nM
[2]
  Ki: 3.1 µM
[3]
  Ki: 420 nM

## N=C(N)c1ccc(NC(=O)CC2CC(c3cccc(C(=N)N)c3)=NO2)cc1 (stereo unspecified)
[1]
  Ki: 1400 nM
[2]
  Ki: 11.1 µM
